Assay results reported in paper PMC13086438 (PLOS Neglected Tropical Diseases, 2026).

Biological target: T1, recombinant human sphingosine kinase 1 (rhSphK1) (Homo sapiens, UniProt Q9NYA1)
T1 construct: gene SPHK1; full-length (1155 bp CDS), 6×His tag, ~50 kDa, E. coli
Assay: Microscale thermophoresis (SphK2 inhibitor used as control)
Type: binding

T1 sequence (Q9NYA1 whole entry): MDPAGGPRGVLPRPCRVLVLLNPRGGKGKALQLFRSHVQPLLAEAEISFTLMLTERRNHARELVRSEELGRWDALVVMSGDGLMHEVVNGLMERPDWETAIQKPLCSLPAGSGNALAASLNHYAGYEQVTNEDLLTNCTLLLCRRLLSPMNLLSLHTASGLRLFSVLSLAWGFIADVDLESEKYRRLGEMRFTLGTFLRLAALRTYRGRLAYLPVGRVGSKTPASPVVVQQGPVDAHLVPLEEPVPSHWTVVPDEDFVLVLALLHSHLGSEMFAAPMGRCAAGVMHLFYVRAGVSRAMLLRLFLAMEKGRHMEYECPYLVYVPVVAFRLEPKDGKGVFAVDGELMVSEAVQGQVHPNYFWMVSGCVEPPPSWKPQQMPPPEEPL

O=C(NCc1ccncc1)C12CC3CC(C1)CC(c1ccc(Cl)cc1)(C3)C2 [ABC294640]
Kd: 70.6 µM
